Results reported in patent publication US20090209577A1, “Novel Triazolopyridine Compounds” (PFIZER INC., priority 2004, published 2009).
Counter-ions that a name gives are not always drawn.

Each molecule was assayed against T1, human p38 kinase alpha (Homo sapiens, UniProt Q16539) (assay: p38 kinase in vitro assay (PHAS-I / 32P-ATP format or EGFRP / 33P-ATP format)). Conditions: activated human p38 kinase alpha, 50 μM unlabeled ATP; two assay formats, table does not say which.
T1 construct: The coding region of the human p38a cDNA was obtained by PCR-amplification from RNA isolated from the human monocyte cell line THP.1; made in house; host or cells: E. coli DH10B
T1 sequence (Q16539 whole entry): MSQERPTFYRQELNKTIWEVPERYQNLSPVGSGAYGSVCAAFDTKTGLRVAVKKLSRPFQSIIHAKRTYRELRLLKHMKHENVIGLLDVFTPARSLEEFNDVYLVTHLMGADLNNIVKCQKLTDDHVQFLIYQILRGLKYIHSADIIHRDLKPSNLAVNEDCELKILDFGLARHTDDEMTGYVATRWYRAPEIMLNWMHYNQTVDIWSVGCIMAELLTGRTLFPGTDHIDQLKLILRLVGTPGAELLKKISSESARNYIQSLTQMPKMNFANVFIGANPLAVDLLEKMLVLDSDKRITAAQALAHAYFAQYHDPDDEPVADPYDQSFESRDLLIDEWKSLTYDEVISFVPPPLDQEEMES
Assay type: biochemical
Description: The ability of compounds to inhibit human p38 kinase alpha was evaluated using two in vitro assay methods. In the first method, activated human p38 kinase alpha phosphorylates a biotinylated substrate, PHAS-I (phosphorylated heat and acid stable protein-insulin inducible), in the presence of gamma ^32P-ATP (^32P-ATP). PHAS-I was biotinylated prior to the assay and provides a means of capturing the substrate, which is phosphorylated during the assay. p38 Kinase was activated by MKK6. Compounds were tested in 10 fold serial dilutions over the range of 100 μM to 0.001 μM using 1% DMSO. Each concentration of inhibitor was tested in triplicate.
All reactions were carried out in 96 well polypropylene plates. Each reaction well contained 25 mM HEPES pH 7.5, 10 mM magnesium acetate and 50 μM unlabeled ATP. Activation of p38 was required to achieve sufficient signal in the assay. Biotinylated PHAS-1 was used at 1-2 μg per 50 μl reaction volume, with a final concentration of 1.5 μM. Activated human p38 kinase alpha was used at 1 μg per 50 μl reaction volume representing a final concentration of 0.3 μM. Gamma ^32P-ATP was used to follow the phosphorylation of PHAS-1. ^32P-ATP has a specific activity of 3000 Ci/mmol and was used at 1.2 μCi per 50 μl reaction volume. The reaction proceeded either for one hour or overnight at 30° C.
Following incubation, 20 μl of reaction mixture was transferred to a high capacity streptavidin coated filter plate (SAM-streptavidin-matrix, Promega) prewetted with phosphate buffered saline. The transferred reaction mix was allowed to contact the streptavidin membrane of the Promega plate for 1-2 minutes. Following capture of biotinylated PHAS-1 with ^32P incorporated, each well was washed to remove unincorporated ^32P-ATP three times with 2M NaCl, three washes of 2M NaCl with 1% phosphoric, three washes of distilled water and finally a single wash of 95% ethanol. Filter plates were air-dried and 20 μl of scintillant was added. The plates were sealed and counted.
A second assay format was also employed that is based on p38 kinase alpha induced phosphorylation of EGFRP (epidermal growth factor receptor peptide, a 21 mer) in the presence ^33P-ATP. Compounds were tested in 10 fold serial dilutions over the range of 100 μM to 0.001 μM in 1% DMSO. Each concentration of inhibitor was tested in triplicate. Compounds were evaluated in 50 μl reaction volumes in the presence of 25 mM Hepes pH 7.5, 10 mM magnesium acetate, 4% glycerol, 0.4% bovine serum albumin, 0.4 mM DTT, 50 μM unlabeled ATP, 25 μg EGFRP (200 μM), and 0.05 μCi ^33P-ATP. Reactions were initiated by addition of 0.09 μg of activated, purified human GST-p38 kinase alpha. Activation was carried out using GST-MKK6 (5:1, p38:MKK6) for one hour at 30° C. in the presence of 50 μM ATP. Following incubation for 60 minutes at room temperature, the reaction was stopped by addition of 150 μl of AG 1×8 resin in 900 mM sodium formate buffer, pH 3.0 (1 volume resin to 2 volumes buffer). The mixture was mixed three times with pipetting and the resin was allowed to settle. A total of 50 μl of clarified solution head volume was transferred from the reaction wells to Microlite-2 plates. 150 μl of Microscint 40 was then added to each well of the Microlite plate, and the plate was sealed, mixed, and counted.
The above protocol assays were used to determine the IC50 values for compounds in Examples 1-71 above.

Structure (SMILES) | IC50 [nM]
NC(=O)c1cccc(-c2nnc3ccc(Cc4ccc(F)cc4F)cn23)c1 [Example 28, 3-[6-(2,4-difluorobenzyl)[1,2,4]triazolo[4,3-a]pyridin-3-yl]benzamide] | 2980
CC(C)c1nnc2cc(Cl)c(Sc3ccc(F)cc3F)c(Br)n12 [Example 39, 5-bromo-7-chloro-6-[(2,4-difluorophenyl)thio]-3-isopropyl[1,2,4]triazolo[4,3-a]pyridine] | 6080
Cc1ccc(C(=O)O)cc1-c1nnc2ccc(CCc3ccc(F)cc3F)cn12 [Example 21, 3-{6-[2-(2,4-difluorophenyl)ethyl][1,2,4]triazolo[4,3-a]pyridin-3-yl}-4-methylbenzoic acid] | 2710
C=Cc1ccc2nnc(C(C)C)n2c1 [Example 56, 3-isopropyl-6-vinyl[1,2,4]triazolo[4,3-a]pyridine] | > 100000
NC(=O)c1cccc(-c2nnc3ccc(Sc4ccc(F)cc4F)cn23)c1 [Example 26, 3-{6-[(2,4-difluorophenyl)thio][1,2,4]triazolo[4,3-a]pyridin-3-yl}benzamide] | 241
NC(=O)c1ccc(-c2nnc3ccc(Sc4ccc(F)cc4F)cn23)cc1 [Example 23, 4-{6-[(2,4-difluorophenyl)thio][1,2,4]triazolo[4,3-a]pyridin-3-yl}benzamide] | 201
COC(=O)c1ccc(C)c(-c2nnc3ccc(Sc4ccc(F)cc4F)cn23)c1 [41 (step 3), methyl 3-{6-[(2,4-difluorophenyl)thio][1,2,4]triazolo[4,3-a]pyridin-3-yl}-4-methylbenzoate] | 7.8
COC(=O)c1ccc(C)c(-c2nnc3n2CC(CCc2ccc(F)cc2F)CC3)c1 (racemic) [Example 18, racemic methyl 3-{6-[2-(2,4-difluorophenyl)ethyl]-5,6,7,8-tetrahydro[1,2,4]triazolo[4,3-a]pyridin-3-yl}-4-methylbenzoate] | 107
COC(=O)c1cccc(-c2nnc3ccc(Sc4ccc(F)cc4F)cn23)c1 [Example 64A, methyl 3-{6-[(2,4-difluorophenyl)thio][1,2,4]triazolo[4,3-a]pyridin-3-yl}benzoate] | 181
CC(C)c1nnc2ccc(Cc3ccc(Cl)nc3)cn12 [Example 9, 6-[(6-chloropyridin-3-yl)methyl]-3-isopropyl[1,2,4]triazolo[4,3-a]pyridine] | 53300
COC(=O)c1ccc(C)c(-c2nnc3ccc(CCc4ccc(F)cc4F)cn23)c1 [Example 17, methyl 3-{6-[2-(2,4-difluorophenyl)ethyl][1,2,4]triazolo[4,3-a]pyridin-3-yl}-4-methylbenzoate] | 17.1
COC(=O)c1cccc(-c2nnc3ccc(Cc4ccc(F)cc4F)cn23)c1 [Example 58, methyl 3-[6-(2,4-difluorobenzyl)[1,2,4]triazolo[4,3-a]pyridin-3-yl]benzoate] | 141
O=C(O)c1cccc(-c2nnc3ccc(C(=O)c4ccc(F)cc4F)cn23)c1 [Example 66, 3-[6-(2,4-difluorobenzoyl)[1,2,4]triazolo[4,3-a]pyridin-3-yl]benzoic acid] | > 100000
Cc1ccc(C(N)=O)cc1-c1nnc2ccc(Sc3ccc(F)cc3F)cn12 [Example 41, 3-{6-[(2,4-difluorophenyl)thio][1,2,4]triazolo[4,3-a]pyridin-3-yl}-4-methylbenzamide] | 60.8
CC(C)c1nnc2ccc(Sc3c(Cl)cc(Cl)cc3Cl)cn12 [Example 55, 3-isopropyl-6-[(2,4,6-trichlorophenyl)thio][1,2,4]triazolo[4,3-a]pyridine hydrochloride] | 8240
Cc1ccc(C(=O)O)cc1-c1nnc2n1CC(CCc1ccc(F)cc1F)CC2 (racemic) [Example 19, racemic 3-{6-[2-(2,4-difluorophenyl)ethyl]-5,6,7,8-tetrahydro[1,2,4]triazolo[4,3-a]pyridin-3-yl}-4-methylbenzoic acid] | 7550
CC(=O)c1ccc2nnc(C(C)C)n2c1 [Example 4, 1-(3-isopropyl[1,2,4]triazolo[4,3-a]pyridin-6-yl)ethanone] | > 100000
CC(C)c1nnc2cc(Cl)c(Sc3ccc(F)cc3F)cn12 [Example 35, 7-chloro-6-[(2,4-difluorophenyl)thio]-3-isopropyl[1,2,4]triazolo[4,3-a]pyridine hydrochloride] | 889
C=Cc1ccc(-c2nnc3ccc(Sc4ccc(F)cc4F)cn23)cc1 [Example 57, 6-[(2,4-difluorophenyl)thio]-3-(4-vinylphenyl)[1,2,4]triazolo[4,3-a]pyridine] | 181
C=Cc1ccc(-c2nnc3ccc(Cc4ccc(F)cc4F)cn23)cc1 [62 (step 2), 6-(2,4-difluorobenzyl)-3-(4-vinylphenyl)[1,2,4]triazolo[4,3-a]pyridine] | 2290
O=C(O)c1ccc(-c2nnc3ccc(Cc4ccc(F)cc4F)cn23)cc1 [Example 59, 4-[6-(2,4-difluorobenzyl)[1,2,4]triazolo[4,3-a]pyridin-3-yl]benzoic acid] | > 100000
O=C(O)c1cccc(-c2nnc3ccc(Sc4ccc(F)cc4F)cn23)c1 [Example 64B, 3-{6-[(2,4-difluorophenyl)thio][1,2,4]triazolo[4,3-a]pyridin-3-yl}benzoic acid] | 7420

Further lines, results first:

IC50 [nM] | Structure (SMILES)
> 100000 | CC(C)c1nnc2ccc(C(=O)Nc3ccc(F)cc3F)cn12 [Example 11, N-(2,4-difluorophenyl)-3-isopropyl[1,2,4]triazolo[4,3-a]pyridine-6-carboxamide]
2920 | Cc1ccc(C(=O)O)cc1-c1nnc2ccc(Sc3ccc(F)cc3F)cn12 [41 (step 4), 3-{6-[(2,4-difluorophenyl)thio][1,2,4]triazolo[4,3-a]pyridin-3-yl}-4-methylbenzoic acid hydrochloride]
24.9 | CC1(c2nnc3ccc(Sc4ccc(F)cc4F)cn23)CC1 [Example 46, 6-[(2,4-difluorophenyl)thio]-3-(1-methylcyclopropyl)[1,2,4]triazolo[4,3-a]pyridine hydrochloride]
319 | CC(C)(C)c1nnc2ccc(C(O)c3ccc(F)cc3F)cn12 (stereo not drawn) [15 (step 1), (3-tert-butyl[1,2,4]triazolo[4,3-a]pyridin-6-yl)(2,4-difluorophenyl)methanol]
19500 | CC(C)(C)c1nnc2ccc(OCc3ccc(F)cc3F)cn12 [Example 12, 3-tert-butyl-6-[(2,4-difluorobenzyl)oxy][1,2,4]triazolo[4,3-a]pyridine]
4.8 | CC(C)(C)c1nnc2ccc(Sc3ccc(F)cc3F)cn12 [Example 48, 3-tert-butyl-6-[(2,4-difluorophenyl)thio][1,2,4]triazolo[4,3-a]pyridine]
7370 | CC(C)c1nnc2ccc(C(=O)Cc3ccc(F)cc3F)cn12 [Example 5, 2-(2,4-difluorophenyl)-1-(3-isopropyl[1,2,4]triazolo[4,3-a]pyridin-6-yl)ethanone]
12.3 | CC(C)c1nnc2ccc(Sc3ccc(F)cc3F)c(Cl)n12 [Example 36, 5-chloro-6-[(2,4-difluorophenyl)thio]-3-isopropyl[1,2,4]triazolo[4,3-a]pyridine]
101 | Cc1c(Sc2ccc(F)cc2F)ccc2nnc(C(C)C)n12 [Example 38, 6-[(2,4-difluorophenyl)thio]-3-isopropyl-5-methyl[1,2,4]triazolo[4,3-a]pyridine]
> 100000 | CC(C)c1nnc2ccc(COCc3ccc(F)cc3F)cn12 [Example 6, 6-{[(2,4-difluorobenzyl)oxy]methyl}-3-isopropyl[1,2,4]triazolo[4,3-a]pyridine]
50500 | CC(C)c1nnc2ccc(Sc3ccc(F)cc3C(F)(F)F)cn12 [Example 53, 6-{[4-fluoro-2-(trifluoromethyl)phenyl]thio}-3-isopropyl[1,2,4]triazolo[4,3-a]pyridine hydrochloride]
